In ChEMBL document CHEMBL3044763, “Inhibitory Activities of Rhodanine Derivatives on Plant Growth” (Biosci Biotechnol Biochem, 1996):

Key:
[1] = Toxicity in Mus musculus ddY (mouse) assessed as mortality at 6 mg/kg, ip after 6 days; format: organism-based; set-up: dose 6 mg/kg, route intraperitoneal; details: in vivo
Daucus carota [2] = test: Growth inhibition of Daucus carota (carrot) assessed as root growth at 5 x 10^-5 M after 7 days; format: functional
[3] = test system: Brassica rapa subsp. oleifera; test: Growth inhibition of Brassica rapa subsp. oleifera assessed as chlorophyll b level at 3 x 10^-5 M after 7 days; format: functional; set-up: scale not given: the % may be the effect or the level left
[4] = test system: Brassica rapa subsp. oleifera; test: Growth inhibition of Brassica rapa subsp. oleifera assessed as total chlorophyll level at 5 x 10^-5 M after 7 days; format: functional; set-up: scale not given: the % may be the effect or the level left
[5] = test system: Brassica rapa subsp. oleifera; test: Growth inhibition of Brassica rapa subsp. oleifera assessed as root growth at 5 x 10^-5 M after 7 days; format: functional
Daucus carota [6] = test: Growth inhibition of Daucus carota (carrot) assessed as root growth at 1 x 10^-4 M after 7 days; format: functional
[7] = Toxicity in Mus musculus ddY (mouse) assessed as mortality at 7 mg/kg, ip after 7 days; format: organism-based; set-up: dose 7 mg/kg, route intraperitoneal; details: in vivo
[8] = Toxicity in Mus musculus ddY (mouse) assessed as mortality at 5 mg/kg, ip after 2 days; format: organism-based; set-up: dose 5 mg/kg, route intraperitoneal; details: in vivo
Lactuca sativa [9] = test: Growth inhibition of Lactuca sativa (lettuce) assessed as root growth at 3 x 10^-5 M after 7 days; format: functional
[10] = Toxicity in Mus musculus ddY (mouse) assessed as mortality at 7 mg/kg, ip after 5 days; format: organism-based; set-up: dose 7 mg/kg, route intraperitoneal; details: in vivo
[11] = Toxicity in Mus musculus ddY (mouse) assessed as mortality at 3 mg/kg, ip after 2 days; format: organism-based; set-up: dose 3 mg/kg, route intraperitoneal; details: in vivo
Allium tuberosum = test: Growth inhibition of Allium tuberosum assessed as root growth at 1 x 10^-4 M after 10 days; format: functional
[12] = test system: Brassica rapa subsp. oleifera; test: Growth inhibition of Brassica rapa subsp. oleifera assessed as chlorophyll a level at 3 x 10^-5 M after 7 days; format: functional; set-up: scale not given: the % may be the effect or the level left
[13] = Toxicity in Mus musculus ddY (mouse) assessed as mortality at 8 mg/kg, ip after 6 days; format: organism-based; set-up: dose 8 mg/kg, route intraperitoneal; details: in vivo
[14] = test system: Brassica rapa subsp. oleifera; test: Growth inhibition of Brassica rapa subsp. oleifera assessed as chlorophyll b level at 3 x 10^-4 M after 7 days; format: functional; set-up: scale not given: the % may be the effect or the level left
Lactuca sativa [15] = test: Growth inhibition of Lactuca sativa (lettuce) assessed as root growth at 3 x 10^-4 M after 7 days; format: functional
[16] = test system: Brassica rapa subsp. oleifera; test: Growth inhibition of Brassica rapa subsp. oleifera assessed as total chlorophyll level at 1 x 10^-4 M after 7 days; format: functional; set-up: scale not given: the % may be the effect or the level left
[17] = Toxicity in Mus musculus ddY (mouse) assessed as mortality at 7 mg/kg, ip after 3 days; format: organism-based; set-up: dose 7 mg/kg, route intraperitoneal; details: in vivo
[18] = Toxicity in Mus musculus ddY (mouse) assessed as mortality at 5 mg/kg, ip after 4 days; format: organism-based; set-up: dose 5 mg/kg, route intraperitoneal; details: in vivo
[19] = Toxicity in Mus musculus ddY (mouse) assessed as mortality at 6 mg/kg, ip after 7 days; format: organism-based; set-up: dose 6 mg/kg, route intraperitoneal; details: in vivo
Daucus carota [20] = test: Growth inhibition of Daucus carota (carrot) assessed as root growth at 3 x 10^-4 M after 7 days; format: functional
Sesamum indicum = test: Growth inhibition of Sesamum indicum (sesame) assessed as root growth at 3 x 10^-4 M after 7 days; format: functional
[21] = test system: Brassica rapa subsp. oleifera; test: Growth inhibition of Brassica rapa subsp. oleifera assessed as root growth at 1 x 10^-4 M after 7 days; format: functional
[22] = Toxicity in Mus musculus ddY (mouse) assessed as mortality at 8 mg/kg, ip after 5 days; format: organism-based; set-up: dose 8 mg/kg, route intraperitoneal; details: in vivo
[23] = test system: Brassica rapa subsp. oleifera; test: Growth inhibition of Brassica rapa subsp. oleifera assessed as root growth at 3 x 10^-5 M after 7 days; format: functional
[24] = Toxicity in Mus musculus ddY (mouse) assessed as mortality at 4 mg/kg, ip after 4 days; format: organism-based; set-up: dose 4 mg/kg, route intraperitoneal; details: in vivo
[25] = Toxicity in Mus musculus ddY (mouse) assessed as mortality at 3 mg/kg, ip after 1 day; format: organism-based; set-up: dose 3 mg/kg, route intraperitoneal; details: in vivo

Question: Which mortality at 144 h [1] does the source give for `NN1C(=O)CSC1=S` [AMINORHODANINE] here?
Answer: The mortality at 144 h was 60%.

Question: And the Activity (Daucus carota [2])?
Answer: Its Activity is 10.8 mm.

Question: And the Activity [3]?
Answer: The Activity was 4.78%.

Question: And the Activity [4]?
Answer: The Activity was 13.57%.

Question: And the Root length [5]?
Answer: Its Root length is 26.8 mm.

Question: And the Activity (Daucus carota [6])?
Answer: Its Activity is 2.4 mm.

Question: What about the mortality at 168 h [7] of the same compound?
Answer: The mortality at 168 h was 80%.

Question: What about the mortality at 48 h [8] of the same compound?
Answer: The mortality at 48 h was 60%.

Question: And the Activity (Lactuca sativa [9])?
Answer: The Activity was 6.1 mm.

Question: And the mortality at 120 h [10]?
Answer: Its mortality at 120 h is 80%.

Question: And the mortality at 48 h [11]?
Answer: Its mortality at 48 h is 0%.

Question: And the Activity (Allium tuberosum)?
Answer: Its Activity is 5.1 mm.

Question: And the Activity [12]?
Answer: Its Activity is 11.07%.

Question: And the mortality at 144 h [13]?
Answer: The mortality at 144 h was 100%.

Question: And the Activity [14]?
Answer: Its Activity is 3.4%.

Question: And the Activity (Lactuca sativa [15])?
Answer: Its Activity is 0 mm.

Question: What about the Activity [16] of the same compound?
Answer: Its Activity is 11.85%.

Question: What about the mortality at 72 h [17] of the same compound?
Answer: Its mortality at 72 h is 80%.

Question: And the mortality at 96 h [18]?
Answer: The mortality at 96 h was 60%.

Question: And the mortality at 168 h [19]?
Answer: Its mortality at 168 h is 60%.

Question: And the Activity (Daucus carota [20])?
Answer: Its Activity is 0 mm.

Question: And the Activity (Sesamum indicum)?
Answer: Its Activity is 0 mm.

Question: And the Activity [21]?
Answer: The Activity was 14.1 mm.

Question: What about the mortality at 120 h [22] of the same compound?
Answer: Its mortality at 120 h is 100%.

Question: What about the Root length [23] of the same compound?
Answer: Its Root length is 30.8 mm.

Question: And the mortality at 96 h [24]?
Answer: Its mortality at 96 h is 20%.

Question: What about the mortality at 24 h [25] of the same compound?
Answer: Its mortality at 24 h is 0%.
